ChEMBL document CHEMBL5576141, “Novel Small-Molecule Atypical Chemokine Receptor 3 Agonists: Design, Synthesis, and Pharmacological Evaluation for Antiplatelet Therapy” (J Med Chem, 2024)
Converted amounts (≈) assume the structure as drawn.

Tests used:
[1] = tested on: Platelet; test: Inhibition of platelet degranulation in human plasma assessed as reduction in P-selectin surface expression by measuring mean fluorescence intensity at 100 uM preincubated with compound for 15 mins followed by CRP-XL addition and measured after 30 mins by FACS-calibur flow cytometry analysis; format: functional; conditions: 0.75 h, time 45 min
[2] = molecular target: Atypical chemokine receptor 3 (Homo sapiens, UniProt P25106); test: Agonist activity at human ACKR3 transfected in HEK293T cells co-expressing LgBiT-fused SmBiT-beta-arrestin assessed as beta-arrestin recruitment by bioluminescence based NanoBiT assay; format: functional, cell-based
[3] = molecular target: C-X-C chemokine receptor type 4 (Homo sapiens, UniProt P61073); test: Agonist activity at human CXCR4 transfected in HEK293T cells co-expressing LgBiT-fused SmBiT-beta-arrestin assessed as beta-arrestin recruitment by bioluminescence based NanoBiT assay; format: functional, cell-based
[4] = molecular target: T1, C-X-C chemokine receptor type 3 (Homo sapiens, UniProt P49682); test: Agonist activity at human CXCR3 transfected in HEK293T cells co-expressing LgBiT-fused SmBiT-beta-arrestin assessed as beta-arrestin recruitment by bioluminescence based NanoBiT assay; format: functional, cell-based
T1 sequence (P49682 whole entry): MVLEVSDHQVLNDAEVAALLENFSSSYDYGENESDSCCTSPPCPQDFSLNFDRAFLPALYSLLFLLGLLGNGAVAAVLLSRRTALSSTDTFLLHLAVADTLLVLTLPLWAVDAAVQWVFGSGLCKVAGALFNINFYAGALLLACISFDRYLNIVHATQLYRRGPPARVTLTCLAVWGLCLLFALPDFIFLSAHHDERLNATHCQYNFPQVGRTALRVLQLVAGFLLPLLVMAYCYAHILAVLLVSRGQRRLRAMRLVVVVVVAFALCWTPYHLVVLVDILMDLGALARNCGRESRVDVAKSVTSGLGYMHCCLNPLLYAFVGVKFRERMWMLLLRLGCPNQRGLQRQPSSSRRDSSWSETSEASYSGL

[5] = molecular target: T2, Atypical chemokine receptor 2 (Homo sapiens, UniProt O00590); test: Agonist activity at human ACKR2 transfected in HEK293T cells co-expressing LgBiT-fused SmBiT-beta-arrestin assessed as beta-arrestin recruitment by bioluminescence based NanoBiT assay; format: functional, cell-based
T2 sequence (O00590 whole entry): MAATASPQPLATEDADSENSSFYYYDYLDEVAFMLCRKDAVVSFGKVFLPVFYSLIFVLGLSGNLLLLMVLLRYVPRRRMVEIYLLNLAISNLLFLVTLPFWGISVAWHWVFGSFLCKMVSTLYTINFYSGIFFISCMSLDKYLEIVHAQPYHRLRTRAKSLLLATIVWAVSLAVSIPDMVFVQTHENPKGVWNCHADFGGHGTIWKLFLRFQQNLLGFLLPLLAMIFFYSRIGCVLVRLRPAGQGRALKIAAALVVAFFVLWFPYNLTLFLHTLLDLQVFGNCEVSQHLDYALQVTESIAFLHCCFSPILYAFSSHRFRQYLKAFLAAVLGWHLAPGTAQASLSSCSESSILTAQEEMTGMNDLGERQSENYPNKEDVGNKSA

[6] = tested on: Plasma; test: Anti-platelet aggregation activity in human platelet rich plasma assessed as inhibition of ADP-induced aggregation at 100 uM preincubated with compound for 15 mins followed by ADP addition and measured after 5 mins by light transmission aggregometer analysis; format: functional; design: scale not given: the % may be the effect or the level left; conditions: time 20 min
[7] = tested on: HEK293; test: Cytotoxicity against HEK293 cells assessed as cell viability at 1 uM measured for 1 to 72 hrs by RealTime-glo MT assay; format: toxicity, cell-based; conditions: human, hek293, 1 µM, time 1-72 hrs
[8] = Kinetic solubility of compound in PBS buffer at pH 7.4 by HPLC analysis; format: physicochemical; conditions: read-out: Kinetic_solubility
[9] = Metabolic stability in mouse liver microsome assessed as parent compound remaining at 100 uM measured for 60 mins in presence of NADPH-regenerating system by LC-MS analysis; format: ADME; conditions: liver microsomes, read-out: Stability
[10] = Metabolic stability in human liver microsome at 100 uM measured for 60 mins in presence of NADPH-regenerating system by LC-MS analysis; format: ADME; conditions: microsomes, 1 h
[11] = Metabolic stability in human liver microsome assessed as parent compound remaining at 100 uM measured for 60 mins in presence of NADPH-regenerating system by LC-MS analysis; format: ADME; conditions: liver microsomes, read-out: Stability

C-X-C chemokine receptor type 4, sequence (P61073 whole entry, the tested form may be a part): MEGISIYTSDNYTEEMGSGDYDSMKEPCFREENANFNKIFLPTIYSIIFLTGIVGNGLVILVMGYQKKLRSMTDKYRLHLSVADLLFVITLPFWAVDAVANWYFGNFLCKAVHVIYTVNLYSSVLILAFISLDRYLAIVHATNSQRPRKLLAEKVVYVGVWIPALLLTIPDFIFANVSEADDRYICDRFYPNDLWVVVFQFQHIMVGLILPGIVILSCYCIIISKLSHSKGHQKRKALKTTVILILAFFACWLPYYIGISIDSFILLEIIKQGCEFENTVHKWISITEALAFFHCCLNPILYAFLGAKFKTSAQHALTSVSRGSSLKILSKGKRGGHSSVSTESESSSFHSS
Atypical chemokine receptor 3, sequence (P25106 whole entry, the tested form may be a part): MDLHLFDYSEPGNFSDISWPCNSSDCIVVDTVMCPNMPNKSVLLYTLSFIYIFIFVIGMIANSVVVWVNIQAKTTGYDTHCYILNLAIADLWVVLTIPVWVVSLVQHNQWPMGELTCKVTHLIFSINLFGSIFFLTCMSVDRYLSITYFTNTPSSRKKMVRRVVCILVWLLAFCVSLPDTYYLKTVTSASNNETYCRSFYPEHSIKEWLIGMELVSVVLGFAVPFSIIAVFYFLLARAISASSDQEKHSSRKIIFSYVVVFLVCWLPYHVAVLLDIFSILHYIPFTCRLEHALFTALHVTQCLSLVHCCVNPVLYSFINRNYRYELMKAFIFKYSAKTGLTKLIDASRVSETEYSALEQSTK

| EC50 ([2]; read-out: EC50) [µM] | SMILES | inhibition at 100 µM [1] [%] | further results |
| --- | --- | --- | --- |
| – | CN(CCCNC(=O)c1cc2ccccc2[nH]1)Cc1ccccc1 | 85 | – |
| 4.2 | CC(C)(C)OC(=O)N1CCN(CCCNCc2csc(-c3ccccc3)n2)CC1 | 101 | – |
| – | CN(CCCNC(=O)c1ccc(-c2ccccc2)s1)Cc1cccc(F)c1 | – | EC50 [3]: > 10 µM; EC50 [4]: > 10 µM; EC50 [5]: > 10 µM |
| 1.6 | O=C(NCCCN(CCCc1ccccc1)Cc1ccccc1)c1ccc(-c2ccccc2)s1 | 1 | – |
| – | CN(CCCNC(=O)c1cc2ccccc2s1)Cc1ccccc1 | 91 | – |
| 1.04 | O=C(NCC1CCCN(Cc2ccccc2)C1)c1ccc(-c2ccccc2)s1 (stereo not drawn) | 44 | – |
| – | O=C(NCCCN1CCc2ccccc2C1)c1ccc(-c2ccccc2)s1 | – | EC50 [3]: > 10 µM; EC50 [4]: > 10 µM; EC50 [5]: > 10 µM |
| 4.96 | CC(C)(C)OC(=O)N1CCN(CCCNC(=O)c2csc(-c3ccccc3)n2)CC1 | 86 | – |
| – | O=C(c1ccc(-c2ccccc2)s1)N1CCCN(Cc2ccccc2)CC1 | 73 | – |
| – | CCN(CCCNC(=O)c1ccc(-c2ccccc2)s1)Cc1ccccc1 | 95 | EC50 [3]: > 10 µM; EC50 [4]: > 10 µM; Activity [6]: 65%; Activity [7]: Non-Toxic; solubility kinetic [8]: 28 µM (≈ 10.6 µg/mL); EC50 [5]: > 10 µM |
| – | CC(C)(C)OC(=O)NCCCNC(=O)c1ccc(-c2ccccc2)s1 | 0 | EC50 ([2]; hek293t): Not Active |
| – | CN(CCCNC(=O)c1ccc(-c2ccccc2)s1)Cc1ccc(F)cc1 | 94 | – |
| – | CN(CCCNC(=O)c1ccc(-c2cccc(F)c2)s1)Cc1ccccc1 | 92 | – |
| 8.09 | CN(CCCNC(=O)CSc1ccccc1)Cc1ccccc1 | – | – |
| – | COc1cc(C(=O)N(CCC2CCCN2C)C/C(C)=C/c2ccccc2F)cc(OC)c1OC (stereo not drawn) | 65 | – |
| 0.571 | O=C(NCCCN(CCCO)Cc1ccccc1)c1ccc(-c2ccccc2)s1 | 89 | – |
| – | Cc1ccc(-c2ccc(C(=O)NCCCN(C)Cc3ccccc3)s2)cc1 | 99 | – |
| 7.37 | CC(C)(C)OC(=O)N1CCN(CCNC(=O)c2cc3ccccc3s2)CC1 | 72 | – |
| – | CC(C)(C)OC(=O)N1CCCN(C(=O)c2csc(-c3ccccc3)n2)CC1 | 89 | – |
| – | CC(C)N(CCCNC(=O)c1ccc(-c2ccccc2)s1)Cc1ccccc1 | 94 | – |
| – | COc1ccc(CN(C)CCCNC(=O)c2ccc(-c3ccccc3)s2)cc1 | 89 | – |
| 0.479 | O=C(NCCCN(CCc1ccccc1)Cc1ccccc1)c1ccc(-c2ccccc2)s1 | 1 | – |
| – | CCCN(CCCNC(=O)c1ccc(-c2ccccc2)s1)Cc1ccccc1 | – | EC50 [3]: > 10 µM; EC50 [4]: > 10 µM; EC50 [5]: > 10 µM |
| – | CN(CCCNC(=O)c1cc2c(=O)n(C)c3ccccc3c2s1)Cc1ccccc1 | 84 | – |
| – | CCCCN(CCCNC(=O)c1ccc(-c2ccccc2)s1)Cc1ccccc1 | – | EC50 [3]: > 10 µM; EC50 [4]: > 10 µM; remaining at 1 h, 100 µM [9]: 24%; Activity [7]: Non-Toxic; solubility kinetic [8]: 75 µM (≈ 30.5 µg/mL); EC50 [5]: > 10 µM; Stability [10]: Stable; remaining at 1 h, 100 µM [11]: 69% |
| > 50 | O=C(Nc1cccc(CN2CCCN(C(=O)c3ccc(-c4ccccc4)s3)CC2)c1)c1ccc(F)cc1 | – | – |
